Data from the Deep4Chem optical property database.

Test: photoluminescence quantum yield (fraction); solvent given as SMILES
[1] = in c1ccc2c(c1)c1ccccc1n2-c1ccc(-c2ccc(-n3c4ccccc4c4ccccc43)cc2)cc1

## CN(C)c1ccc2nc(-c3ccc(/C=N/c4ccccc4)cc3)sc2c1
In C1CCCCC1
  photoluminescence quantum yield: 0.057
In CC#N
  photoluminescence quantum yield: 0.72
In CO
  photoluminescence quantum yield: 0.067
In ClC(Cl)Cl
  photoluminescence quantum yield: 0.12

## N#Cc1nc(N(Cc2ccccc2F)Cc2ccccc2F)c(C#N)nc1N(Cc1ccccc1F)Cc1ccccc1F
In ClC(Cl)Cl
  photoluminescence quantum yield: 0.79

## CN(C)c1ccc2nc(-c3ccc(C=C(C#N)C#N)cc3)sc2c1
In C1CCCCC1
  photoluminescence quantum yield: 0.85
In CC#N
  photoluminescence quantum yield: 0
In CO
  photoluminescence quantum yield: 0
In ClC(Cl)Cl
  photoluminescence quantum yield: 0.64

## C(=C\c1nc2ccccc2o1)/c1ccccc1
In C1CCCCC1
  photoluminescence quantum yield: 0.05
In CO
  photoluminescence quantum yield: 0.006

## COc1ccc(-c2nc(C(C)=O)c(C)o2)cc1
In CC#N
  photoluminescence quantum yield: 0.056
In CCO
  photoluminescence quantum yield: 0.053
In CCOC(C)=O
  photoluminescence quantum yield: 0.134
In CCOCC
  photoluminescence quantum yield: 0.019
In ClCCl
  photoluminescence quantum yield: 0.051

## CC1(C)CC(=O)C2=C(C1)Oc1ccc3ccc(O)cc3c1C2c1ccccn1 (configuration not stated)
In C1CCOC1
  photoluminescence quantum yield: 0.0027
In C1COCCO1
  photoluminescence quantum yield: 0.0021
In CC#N
  photoluminescence quantum yield: 0.0037
In CCCCCCC
  photoluminescence quantum yield: 0.0082
In CCO
  photoluminescence quantum yield: 0.0035
In CO
  photoluminescence quantum yield: 0.0024
In O
  photoluminescence quantum yield: 0.2

## COc1cc(/C=C/c2nc(N3CCOCC3)c3c([n+]2[O-])CCCC3)cc(OC)c1OC
In ClCCl
  photoluminescence quantum yield: 0.23

## CC(C)[Si](C#Cc1c2ccccc2c(C#C[Si](C(C)C)(C(C)C)C(C)C)c2nc3c(ccc4ccccc43)nc12)(C(C)C)C(C)C
In CCCCCC
  photoluminescence quantum yield: 0.51

## CC1=CC(C)=[N+]2C1=C(c1ccc(-c3ccc(OS(=O)(=O)c4ccc([N+](=O)[O-])cc4[N+](=O)[O-])cc3)s1)c1c(C)cc(C)n1[B-]2(F)F
In Cc1ccccc1
  photoluminescence quantum yield: 0.066

## COc1ccc(C#Cc2ccccc2C#Cc2ccc(OC)cc2)cc1
In CC#N
  photoluminescence quantum yield: 0.83

## COc1ccc(C2=C(c3ccc(OC)cc3)C(c3ccccc3)=[N+]3C2=Nc2c(-c4ccc(OC)cc4)c(-c4ccc(OC)cc4)c(-c4ccccc4)n2[B-]3(F)F)cc1
In Cc1ccccc1
  photoluminescence quantum yield: 0.01

## Cc1ccc(C(=O)c2c(C)c3ccc4cccc5c6cccc7ccc2c(c76)c3c45)cc1
In ClCCl
  photoluminescence quantum yield: 0.039

## c1ccc(-c2ccc(-c3ccc4c(c3)CCO4)cc2)cc1
In C1CCCCC1
  photoluminescence quantum yield: 0.66

## CCCCCOc1cc2oc(=O)c3c4occc4c4ccc5cccc6c(c1)c2c3c4c56
In C1CCOC1
  photoluminescence quantum yield: 0.45

## CCN(CC)c1ccc(-c2cc3c(s2)c(C(=O)OC)cc(=O)n3C)cc1
In C1CCOC1
  photoluminescence quantum yield: 0.97
In CC#N
  photoluminescence quantum yield: 0.08
In CCO
  photoluminescence quantum yield: 0.04
In CN(C)C=O
  photoluminescence quantum yield: 0.16
In CS(C)=O
  photoluminescence quantum yield: 0.1
In Cc1ccccc1
  photoluminescence quantum yield: 0.98
In ClC(Cl)Cl
  photoluminescence quantum yield: 0.99
In ClCCl
  photoluminescence quantum yield: 0.91

## [C-]#[N+]c1ccc(-c2ccc(NC)cc2)cc1
In C1CCCCC1
  photoluminescence quantum yield: 0.74
In C1CCOC1
  photoluminescence quantum yield: 0.74
In C1COCCO1
  photoluminescence quantum yield: 0.77
In CC#N
  photoluminescence quantum yield: 0.88
In CC(C)=O
  photoluminescence quantum yield: 0.55
In CCCCCC
  photoluminescence quantum yield: 0.49
In CCOC(C)=O
  photoluminescence quantum yield: 0.63
In CN(C)C=O
  photoluminescence quantum yield: 0.49
In CO
  photoluminescence quantum yield: 0.65
In CS(C)=O
  photoluminescence quantum yield: 0.72
In Cc1ccccc1
  photoluminescence quantum yield: 0.59
In ClC(Cl)Cl
  photoluminescence quantum yield: 0.55
In ClCCl
  photoluminescence quantum yield: 0.85
In O
  photoluminescence quantum yield: 0.0087
In c1ccncc1
  photoluminescence quantum yield: 0.03

## CCCC1(CCC)c2cc(C=C(C#Cc3ccccc3)C#Cc3ccccc3)ccc2-c2ccc(C=C(C#Cc3ccccc3)C#Cc3ccccc3)cc21
In ClC(Cl)Cl
  photoluminescence quantum yield: 0.31

## Cc1cc2c(o1)=CC1=Cc3cc4oc(C)cc4n3[B-](F)(F)[N+]=21
In C1CCOC1
  photoluminescence quantum yield: 0.93
In CC#N
  photoluminescence quantum yield: 0.95
In CCO
  photoluminescence quantum yield: 0.97
In CO
  photoluminescence quantum yield: 0.96
In Cc1ccccc1
  photoluminescence quantum yield: 0.94
In ClC(Cl)Cl
  photoluminescence quantum yield: 0.96

## CC[N+]1(CC)CN2C(=N1)C(C(=O)O)=Cc1cc(Oc3ccccc3)ccc12
In O
  photoluminescence quantum yield: 0.592

## O=C1c2ccc(N(c3ccccc3)c3ccccc3)cc2C(=O)c2ccc(N(c3ccccc3)c3ccccc3)cc21
In Cc1ccccc1
  photoluminescence quantum yield: 0.2
[1]
  photoluminescence quantum yield: 0.5

## CCCCCCCCCCOc1cc2cc(C#Cc3ccc(/C=C(\C#N)C(=O)O)cc3)c(=O)oc2cc1OCCCCCCCCCC
In CC#N
  photoluminescence quantum yield: 0.05

## C=Cc1cc(OC)cc(OC)c1
In C1CCCCC1
  photoluminescence quantum yield: 0.12
In CC#N
  photoluminescence quantum yield: 0.5

## CC1=[N+]2C(=C(c3ccc(N(C)C)cc3)c3ccc(C)n3[B-]2(F)F)C=C1
In C1CCCCC1
  photoluminescence quantum yield: 0.37
In CC#N
  photoluminescence quantum yield: 0.008
In CC(=O)C(C)(C)C
  photoluminescence quantum yield: 0.024
In CC(C)=O
  photoluminescence quantum yield: 0.006
In CCCCCC
  photoluminescence quantum yield: 0.376
In CO
  photoluminescence quantum yield: 0.03
In Cc1ccccc1
  photoluminescence quantum yield: 0.15
In ClC(Cl)Cl
  photoluminescence quantum yield: 0.058

## CC(C)(C)c1ccc2c(c1)c1cc(C(C)(C)C)ccc1n2-c1cc(C(=O)c2ccncc2)cc(-n2c3ccc(C(C)(C)C)cc3c3cc(C(C)(C)C)ccc32)c1
In Cc1ccccc1
  photoluminescence quantum yield: 0.075
In c1cc(-c2cccc(-n3c4ccccc4c4ccccc43)c2)cc(-n2c3ccccc3c3ccccc32)c1
  photoluminescence quantum yield: 0.97

## CC(C)(C)c1ccc(Oc2cc3c4c(cc(Oc5ccc(C(C)(C)C)cc5)c5c6c(Oc7ccc(C(C)(C)C)cc7)cc7c8c(cc(Oc9ccc(C(C)(C)C)cc9)c(c2c45)c86)C(=O)N(Cc2ccccc2)C7=O)C(=O)N(Cc2ccccc2)C3=O)cc1
In ClC(Cl)Cl
  photoluminescence quantum yield: 0.73

## COc1ccc(C2=CC(c3ccc4ccccc4c3)=[O+][B-](C(C)=O)(C(C)=O)O2)cc1
In CC#N
  photoluminescence quantum yield: 0.6
In ClC(Cl)(Cl)Cl
  photoluminescence quantum yield: 0.8

## CC(C)(C)c1ccc(-c2c(-c3cccc(N(c4ccccc4)c4ccccc4)c3)c(C#N)c(-c3cccc(N(c4ccccc4)c4ccccc4)c3)c(-c3ccc(C(C)(C)C)cc3)c2-c2ccc(C(C)(C)C)cc2)cc1
In C1CCOC1
  photoluminescence quantum yield: 0.072

## CCCc1ccc(C#Cc2cc(C#Cc3ccc(N(C)C)cc3)c3ccc4c(C#Cc5ccc(N(C)C)cc5)cc(C#Cc5ccc(N(C)C)cc5)c5ccc2c3c54)cc1
In ClCCl
  photoluminescence quantum yield: 0.47

## COc1ccccc1-c1nc2c3ccccc3c3ccccc3c2o1
In Cc1ccccc1
  photoluminescence quantum yield: 0.53

## Cc1ccc(N(c2ccc(C)cc2)c2ccc3c(c2)c2cc(N(c4ccc(C)cc4)c4ccc(C)cc4)ccc2n3-c2ccc(-c3nc4cccc5c4n3-c3ccccc3C5(C)C)cc2)cc1
In Cc1ccccc1
  photoluminescence quantum yield: 0.85
In O=P(c1ccccc1)(c1ccccc1)c1ccccc1Oc1ccccc1P(=O)(c1ccccc1)c1ccccc1
  photoluminescence quantum yield: 0.45

## CCCCCCc1ccc2c3c(ccc2c1)O[B-](c1ccccc1)(c1ccccc1)[N+](c1cc([N+]2=Cc4c(ccc5cc(CCCCCC)ccc45)O[B-]2(c2ccccc2)c2ccccc2)cc([N+]2=Cc4c(ccc5cc(CCCCCC)ccc45)O[B-]2(c2ccccc2)c2ccccc2)c1)=C3
In C1CCOC1
  photoluminescence quantum yield: 0.21
In CC#N
  photoluminescence quantum yield: 0.19
In Cc1ccccc1
  photoluminescence quantum yield: 0.29
In ClCCl
  photoluminescence quantum yield: 0.31

## CCCCCCN1C(=O)c2cccc3cc(/N=C\c4ccc5c(c4)c4ccccc4n5CC)cc(c23)C1=O
In ClC(Cl)Cl
  photoluminescence quantum yield: 0.021

## CC(C)(C)c1ccc2c(c1)c1cc(C(C)(C)C)ccc1n2-c1c(C#N)c(-n2c3ccc(C(C)(C)C)cc3c3cc(C(C)(C)C)ccc32)c(-n2c3ccc(C(C)(C)C)cc3c3cc(C(C)(C)C)ccc32)c(-n2c3ccc(C(C)(C)C)cc3c3cc(C(C)(C)C)ccc32)c1-n1c2ccc(C(C)(C)C)cc2c2cc(C(C)(C)C)ccc21
In Cc1ccccc1
  photoluminescence quantum yield: 0.86

## F[B-]1(F)n2c(/C=C/c3ccc(C(=C(c4ccccc4)c4ccccc4)c4ccccc4)cc3)ccc2C(c2ccc(C(=C(c3ccccc3)c3ccccc3)c3ccccc3)cc2)=C2C=CC(/C=C/c3ccc(C(=C(c4ccccc4)c4ccccc4)c4ccccc4)cc3)=[N+]21
In C1CCOC1
  photoluminescence quantum yield: 0.503

## COc1nc(Nc2cc3ccc4cccc5ccc(c2)c3c45)nc(OC)n1
In CC#N
  photoluminescence quantum yield: 0.13
In CCCCOCCCC
  photoluminescence quantum yield: 0.15
In CO
  photoluminescence quantum yield: 0.13

## CCCCCCN1C(=O)c2cc(-c3ccc(-n4c5ccccc5c5ccccc54)cc3)c(-c3ccc(-n4c5ccccc5c5ccccc54)cc3)cc2C1=O
In ClC(Cl)Cl
  photoluminescence quantum yield: 0.78
[1]
  photoluminescence quantum yield: 0.7

## C[n+]1ccn(CCCCc2ccc3c(c2)c2ccccc2n3-c2cc(C#N)c(C#N)cc2F)c1
In CC#N
  photoluminescence quantum yield: 0.029

## F[B-]1(F)n2c(cc3c4ccccc4c4ccccc4c32)-c2ccc3ccccc3[n+]21
In ClCCl
  photoluminescence quantum yield: 0.9

## CC(C)(C)c1ccc2c(c1)c1cc(C(C)(C)C)ccc1n2-c1ccc(N(c2ccc(-c3ccc(-c4ccc(-c5ccc(-c6ccc(-c7ccc(N(c8ccc(-n9c%10ccc(C(C)(C)C)cc%10c%10cc(C(C)(C)C)ccc%109)cc8)c8ccc(-n9c%10ccc(C(C)(C)C)cc%10c%10cc(C(C)(C)C)ccc%109)cc8)cc7)s6)s5)s4)s3)cc2)c2ccc(-n3c4ccc(C(C)(C)C)cc4c4cc(C(C)(C)C)ccc43)cc2)cc1
In ClCCl
  photoluminescence quantum yield: 0.14

## CCN(CC)c1ccc2cc(C#N)c(=O)oc2c1
In ClCCl
  photoluminescence quantum yield: 0.82

## CCC1=C(CC)c2cccc3c2c(cc2nc4ccccc4nc23)O1
In ClCCl
  photoluminescence quantum yield: 0.47

## Cc1ccc(N2C(c3ccccc3NS(=O)(=O)c3ccc(C)cc3)=NC(c3ccccc3)C2c2ccccc2)cc1 (configuration not stated)
In Cc1ccccc1
  photoluminescence quantum yield: 0.004

## c1ccc(-c2ccc(-c3ccccc3)cc2)cc1
In C1COCCO1
  photoluminescence quantum yield: 0.55

## CCN1/C(=C\c2c(-c3ccc(N(C)C)cc3)c(=O)c2=O)C=Cc2ccccc21
In C1CCCCC1
  photoluminescence quantum yield: 0.0276
In Cc1ccccc1
  photoluminescence quantum yield: 0.0226
In ClCCl
  photoluminescence quantum yield: 0.001

## COc1ccc(-n2nc(C#N)c(N3CCCCC3)n2)cc1
In CC#N
  photoluminescence quantum yield: 0.929

## CC1(C)Cc2c(c3ccccc3c3nc4ccccc4nc23)O1
In C1CCCCC1
  photoluminescence quantum yield: 0.082
In C1CCOC1
  photoluminescence quantum yield: 0.13
In CN(C)C=O
  photoluminescence quantum yield: 0.44
In CO
  photoluminescence quantum yield: 0.37
In ClC(Cl)Cl
  photoluminescence quantum yield: 0.26
In c1ccccc1
  photoluminescence quantum yield: 0.2

## c1ccc(Cc2c3ccc(=[N+]4CCCCC4)cc-3oc3cc(N4CCCCC4)ccc23)cc1
In ClCCl
  photoluminescence quantum yield: 0.87

## FC(F)(F)c1ccccc1B1c2ccccc2N(c2ccccc2)c2ccccc21
In ClCCl
  photoluminescence quantum yield: 0.79

## CCC1(CC)c2cc(B(c3c(C)cc(C)cc3C)c3c(C)cc(C)cc3C)ccc2-c2c1c1c(c3c2C(CC)(CC)c2cc(N(c4ccccc4)c4ccccc4)ccc2-3)C(CC)(CC)c2cc(N(c3ccccc3)c3ccccc3)ccc2-1
In C1CCOC1
  photoluminescence quantum yield: 0.21
